Assay results published in PubChem BioAssay (NCI).
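Cultured in 96-well plates, cells were exposed to test compound for 48 hours across five concentrations. GI50 marks 50% less growth. TGI: concentration producing complete growth inhibition.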

Assays:
Experiment in all cases: NCI anticancer screen, dose series, 48 h
A498 renal = tested on: A498 renal
A549 NSCLC = tested on: A549 NSCLC
EKVX NSCLC = tested on: EKVX NSCLC
HCT-116 colon = tested on: HCT-116 colon
M14 melanoma = tested on: M14 melanoma
MOLT-4 leukemia = tested on: MOLT-4 leukemia
RXF 393 renal = tested on: RXF 393 renal
SK-MEL-28 melanoma = tested on: SK-MEL-28 melanoma
SN12C renal = tested on: SN12C renal
MCF7 breast = tested on: MCF7 breast

## COC(=O)Cc1cc(=O)n2c3ccccc3n(C)c2c1C#N
A498 renal
  TGI: > 100 µM
A549 NSCLC
  TGI: > 100 µM
EKVX NSCLC
  TGI: > 100 µM
HCT-116 colon
  TGI: > 100 µM
M14 melanoma
  TGI: > 100 µM
MOLT-4 leukemia
  TGI: > 100 µM
RXF 393 renal
  TGI: > 100 µM
SK-MEL-28 melanoma
  TGI: > 100 µM
SN12C renal
  TGI: > 100 µM

## O=c1ccc(N=Nc2ccccc2)ccc1O
A549 NSCLC
  TGI: 27.8 µM
EKVX NSCLC
  TGI: 81.1 µM
HCT-116 colon
  TGI: 26 µM
M14 melanoma
  TGI: 28.5 µM
MCF7 breast
  TGI: > 100 µM
MOLT-4 leukemia
  TGI: 25.1 µM
RXF 393 renal
  TGI: > 100 µM
SK-MEL-28 melanoma
  TGI: 32.9 µM
SN12C renal
  TGI: 34.6 µM

## COC(=O)C1=NC(=S)NC(c2ccccc2)C1c1nc2ccccc2o1 (centres undefined)
A498 renal
  TGI: > 50 µM
A549 NSCLC
  TGI: > 50 µM
EKVX NSCLC
  TGI: > 50 µM
HCT-116 colon
  TGI: > 50 µM
M14 melanoma
  TGI: > 50 µM
MOLT-4 leukemia
  TGI: > 50 µM
RXF 393 renal
  TGI: > 50 µM
SN12C renal
  TGI: > 50 µM

## Clc1ccc(C=Nc2ccc(-c3nc4ccccc4[nH]3)cc2)cc1
A498 renal
  GI50: 17.4 µM
  TGI: > 100 µM
A549 NSCLC
  GI50: > 100 µM
  TGI: > 100 µM
EKVX NSCLC
  GI50: > 100 µM
  TGI: > 100 µM
HCT-116 colon
  GI50: > 100 µM
  TGI: > 100 µM
M14 melanoma
  GI50: > 100 µM
  TGI: > 100 µM
MCF7 breast
  GI50: > 100 µM
  TGI: > 100 µM
RXF 393 renal
  GI50: > 100 µM
  TGI: > 100 µM
SK-MEL-28 melanoma
  GI50: > 100 µM
  TGI: > 100 µM
SN12C renal
  GI50: > 100 µM
  TGI: > 100 µM

## CCCCCCCCCCCCCCCCCc1nc(Cl)nc(Cl)c1Cl
A549 NSCLC
  TGI: > 100 µM
HCT-116 colon
  TGI: > 100 µM
M14 melanoma
  TGI: > 100 µM
MCF7 breast
  TGI: > 100 µM
MOLT-4 leukemia
  TGI: > 100 µM
RXF 393 renal
  TGI: > 100 µM
SK-MEL-28 melanoma
  TGI: > 100 µM
SN12C renal
  TGI: > 100 µM

## COc1cccc(/C=C2\N=C(c3ccccc3)OC2=O)c1
A549 NSCLC
  TGI: > 100 µM
EKVX NSCLC
  TGI: > 100 µM
HCT-116 colon
  TGI: > 100 µM
M14 melanoma
  TGI: > 100 µM
MCF7 breast
  TGI: > 100 µM
RXF 393 renal
  TGI: > 100 µM
SK-MEL-28 melanoma
  TGI: > 100 µM
SN12C renal
  TGI: > 100 µM

## Cc1ccc(NCCNCC(C)(C)O)c2c(=O)c3ccc(Cl)cc3sc12
A498 renal
  GI50: 1.63 µM
  TGI: 3.09 µM
A549 NSCLC
  GI50: 1.64 µM
  TGI: 3.09 µM
EKVX NSCLC
  GI50: 1.38 µM
  TGI: 2.87 µM
HCT-116 colon
  GI50: 1.3 µM
  TGI: 2.66 µM
M14 melanoma
  GI50: 1.66 µM
  TGI: 3.26 µM
MCF7 breast
  GI50: 1.44 µM
  TGI: 2.97 µM
RXF 393 renal
  GI50: 1.26 µM
  TGI: 2.61 µM
SK-MEL-28 melanoma
  GI50: 1.81 µM
  TGI: 3.38 µM
SN12C renal
  GI50: 1.47 µM
  TGI: 3.01 µM

## CN1C2C=CC(=O)C1C1C(=O)N(c3ccccc3)C(=O)C12 (centres undefined)
A498 renal
  GI50: 15.6 µM
  TGI: 29.5 µM
A549 NSCLC
  GI50: 11.1 µM
  TGI: 29.1 µM
EKVX NSCLC
  GI50: 14.4 µM
  TGI: 32.7 µM
HCT-116 colon
  GI50: 3.57 µM
  TGI: 16.2 µM
M14 melanoma
  GI50: 9.8 µM
  TGI: 24.6 µM
MCF7 breast
  GI50: 4.01 µM
  TGI: 16.5 µM
MOLT-4 leukemia
  GI50: 5.99 µM
  TGI: > 100 µM
SK-MEL-28 melanoma
  GI50: 3.62 µM
  TGI: 16.7 µM
SN12C renal
  GI50: 5.09 µM
  TGI: 31.9 µM

## FC(F)(F)c1ccccc1C1SCc2nc3ccccc3n21 (centres undefined)
A498 renal
  TGI: 94.4 µM
A549 NSCLC
  TGI: > 100 µM
EKVX NSCLC
  TGI: > 100 µM
HCT-116 colon
  TGI: > 100 µM
MOLT-4 leukemia
  TGI: > 100 µM
RXF 393 renal
  TGI: > 100 µM
SK-MEL-28 melanoma
  TGI: > 100 µM
SN12C renal
  TGI: > 100 µM

## C=CCC(N[C@@H](CO)c1ccccc1)c1ccc2ccccc2n1 (some centres undefined)
A498 renal
  GI50: 93.2 µM
  TGI: > 100 µM
A549 NSCLC
  GI50: > 100 µM
  TGI: > 100 µM
EKVX NSCLC
  GI50: > 100 µM
  TGI: > 100 µM
HCT-116 colon
  GI50: > 100 µM
  TGI: > 100 µM
M14 melanoma
  GI50: > 100 µM
  TGI: > 100 µM
RXF 393 renal
  GI50: > 100 µM
  TGI: > 100 µM
SK-MEL-28 melanoma
  GI50: > 100 µM
  TGI: > 100 µM
SN12C renal
  GI50: 67.5 µM
  TGI: > 100 µM

## CC[C@H](C)[C@H](NC(=O)[C@H]1CCCCN1C)C(=O)N(C)[C@H](CCc1nc(C(=O)N[C@@H](Cc2ccccc2)C[C@H](C)C(=O)O)cs1)C(C)C
A498 renal
  GI50: 0.272 µM
  TGI: > 25 µM
A549 NSCLC
  GI50: 2.98 µM
  TGI: > 25 µM
EKVX NSCLC
  GI50: 0.92 µM
  TGI: > 25 µM
HCT-116 colon
  GI50: 0.133 µM
  TGI: > 25 µM
MCF7 breast
  GI50: 0.0271 µM
  TGI: > 25 µM
MOLT-4 leukemia
  GI50: 0.138 µM
  TGI: > 25 µM
SK-MEL-28 melanoma
  GI50: > 25 µM
  TGI: > 25 µM
SN12C renal
  GI50: 0.445 µM
  TGI: > 25 µM

## C[N+](C)(C)CC1CCC(C[N+](C)(C)C)C1=NO (centres undefined)
A498 renal
  TGI: > 100 µM
A549 NSCLC
  TGI: > 100 µM
EKVX NSCLC
  TGI: > 100 µM
HCT-116 colon
  TGI: > 100 µM
M14 melanoma
  TGI: > 100 µM
MOLT-4 leukemia
  TGI: > 100 µM
RXF 393 renal
  TGI: > 100 µM
SK-MEL-28 melanoma
  TGI: > 100 µM
SN12C renal
  TGI: > 100 µM

## Fc1ccccc1CN1COc2c(cc(Cl)c3cccnc23)C1
A549 NSCLC
  TGI: 10.9 µM
EKVX NSCLC
  TGI: 2.72 µM
HCT-116 colon
  TGI: 13.2 µM
M14 melanoma
  TGI: 12 µM
MCF7 breast
  TGI: 13.7 µM
MOLT-4 leukemia
  TGI: 0.758 µM
RXF 393 renal
  TGI: 63.6 µM
SK-MEL-28 melanoma
  TGI: 18.7 µM
SN12C renal
  TGI: 1.57 µM

## COC1C(OC(=O)c2ccc(C)[nH]2)C(O)C(Oc2ccc3c(O)c(NC(=O)c4ccc(O)c(CC=C(C)C)c4)c(=O)oc3c2Cl)OC1(C)C (centres undefined)
A498 renal
  TGI: 33 µM
A549 NSCLC
  TGI: 91.7 µM
EKVX NSCLC
  TGI: 61.9 µM
HCT-116 colon
  TGI: 33.1 µM
M14 melanoma
  TGI: 32.2 µM
MCF7 breast
  TGI: 54.2 µM
MOLT-4 leukemia
  TGI: 45.8 µM
SK-MEL-28 melanoma
  TGI: 32.9 µM
SN12C renal
  TGI: 53.2 µM

## Cc1cc(N(CCC#N)CCC#N)ccc1/C=C(\NC(=O)/C=C/c1ccccc1)C(=O)Nc1ccccc1Cl
A498 renal
  TGI: > 100 µM
A549 NSCLC
  TGI: > 100 µM
EKVX NSCLC
  TGI: > 100 µM
HCT-116 colon
  TGI: > 100 µM
M14 melanoma
  TGI: > 100 µM
MOLT-4 leukemia
  TGI: > 100 µM
RXF 393 renal
  TGI: > 100 µM
SK-MEL-28 melanoma
  TGI: > 100 µM
SN12C renal
  TGI: > 100 µM

## O=C(/C=C/c1ccc(O)c(O)c1)N1CCN(c2ccc(Cl)cc2)CC1
A498 renal
  GI50: 2.5 µM
  TGI: 16.4 µM
A549 NSCLC
  GI50: 5.7 µM
  TGI: 60.2 µM
HCT-116 colon
  GI50: 5.18 µM
  TGI: 19.8 µM
M14 melanoma
  GI50: 8.98 µM
  TGI: 47.1 µM
MCF7 breast
  GI50: 6.08 µM
  TGI: 25 µM
MOLT-4 leukemia
  GI50: 3.47 µM
  TGI: > 100 µM
SK-MEL-28 melanoma
  GI50: 11.5 µM
  TGI: 58.5 µM
SN12C renal
  GI50: 4.11 µM
  TGI: 42.2 µM

## O=C(/C=C/c1ccccc1)c1ccc(Cl)cc1Cl
A498 renal
  TGI: 50.6 µM
A549 NSCLC
  TGI: 60.3 µM
EKVX NSCLC
  TGI: 62.3 µM
HCT-116 colon
  TGI: 24 µM
M14 melanoma
  TGI: 45.3 µM
MOLT-4 leukemia
  TGI: 42.9 µM
SN12C renal
  TGI: 57.7 µM

## CCCC1C[C@H]2CCCCN2[C@H]2CCCN12 (some centres undefined)
A498 renal
  TGI: > 100 µM
A549 NSCLC
  TGI: > 100 µM
EKVX NSCLC
  TGI: > 100 µM
HCT-116 colon
  TGI: > 66.2 µM
M14 melanoma
  TGI: > 100 µM
MOLT-4 leukemia
  TGI: > 100 µM
RXF 393 renal
  TGI: > 90.1 µM
SK-MEL-28 melanoma
  TGI: > 100 µM
SN12C renal
  TGI: > 100 µM
